# Publication PMC4249827, “A Novel CMKLR1 Small Molecule Antagonist Suppresses CNS Autoimmune Inflammatory Disease” (PLoS ONE, 2014)
# Marks after values point to notes of the source that are not given here.
# Assays:
# GPR154 = system: GPR154; design: method as in PubChem, 2014b; ref 24; details: Cell-based (GPCR); neuropeptide S-induced signaling; ref PubChem, 2014b; cited from earlier work
# Acetylcholinesterase = biological target: Acetylcholinesterase; design: method as in Sastry et al., 1988a; ref 19; details: Purified enzyme; ref Sastry et al., 1988a; cited from earlier work
# [1] = system: carnitine acetyletransferase; design: method as in PMID 3174803; details: cited from earlier work
# [2] = system: Nuclear factor of activated T cells (NFAT); design: method as in PubChem, 2014a; details: Cell-based; ref PubChem, 2014a; cited from earlier work
# C57BL/6 mice [3] = experiment: EAE induced by active immunization with MOG35-55/CFA in C57BL/6 mice; assay type: in vivo, mouse
# [4] = system: Marburg virus binding/entry; details: Cell-based; ref PubChem, 2014b; cited from earlier work
# Cytochrome p450 2D6 = details: cited from earlier work
# [5] = system: Bacillus anthracis lethal toxin; details: Cell-based (process); ref PubChem, 2014a; cited from earlier work
# CXCR5 = CXCR5 (Homo sapiens, UniProt P32302); experiment: Transwell chemotaxis of CXCR5+ NC-37 cells to CXCL13
# Vitamin D receptor = biological target: Vitamin D receptor; design: method as in PubChem, 2014a; details: Purified protein (binding); ref PubChem, 2014a; cited from earlier work
# DNA re-replication = system: DNA re-replication; design: method as in PubChem, 2014b; details: Cell-based (process); ref PubChem, 2014b; read-out: Agonist activity, EC50 (µM), DNA re-replication; cited from earlier work
# [6] = biological target: G9a histone lysine methyltransferase; design: method as in PubChem, 2014b; ref 23; details: Purified enzyme; ref PubChem, 2014b; cited from earlier work
# [7] = biological target: 15-Hydroxyprostaglandin dehydrogenase; design: method as in PubChem, 2014b; details: Purified enzyme; ref PubChem, 2014b; cited from earlier work
# [8] = system: Acetylcholine muscarinic M1 receptor; design: method as in PubChem, 2014a; ref 25; details: Cell-based (GPCR); Tested up to 35 µM; ref PubChem, 2014a; cited from earlier work
# CXCR4 = CXCR4 (Homo sapiens, UniProt P61073); experiment: Transwell chemotaxis of CXCR4+ U937 cells to CXCL12
# [9] = system: MPP8 chromodomain/methylated histones; design: method as in PubChem, 2014b; details: Purified protein (binding); ref PubChem, 2014b; cited from earlier work
# CCRL2 KO mice = experiment: EAE induced by active immunization in CCRL2 KO mice; assay type: in vivo, mouse
# Cholinesterase = biological target: Cholinesterase; design: method as in Sastry et al., 1988a; ref 19; details: Purified enzyme; ref Sastry et al., 1988a; cited from earlier work
# CXCR7 = CXCR7 (Homo sapiens, UniProt P25106); experiment: β-arrestin2 (β-ARR2) assay, CXCR7/CHO cells, CXCL12-stimulated; details: 3 µM
# mCMKLR1 = biological target: T1, mCMKLR1 (Mus musculus, UniProt P97468); experiment: Transwell chemotaxis of mCMKLR1/L1.2 transfectants to chemerin
# T1 sequence (P97468 1-371): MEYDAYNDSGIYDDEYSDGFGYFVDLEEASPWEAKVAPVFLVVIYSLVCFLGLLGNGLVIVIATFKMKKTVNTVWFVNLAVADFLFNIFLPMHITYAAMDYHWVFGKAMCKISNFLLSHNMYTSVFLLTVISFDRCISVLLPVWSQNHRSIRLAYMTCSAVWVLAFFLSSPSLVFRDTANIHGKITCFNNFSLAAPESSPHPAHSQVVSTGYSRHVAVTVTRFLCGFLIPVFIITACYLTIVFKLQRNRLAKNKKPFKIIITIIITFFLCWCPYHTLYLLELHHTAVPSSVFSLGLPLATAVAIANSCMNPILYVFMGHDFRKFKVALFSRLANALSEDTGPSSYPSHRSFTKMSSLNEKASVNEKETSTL
# [10] = system: Lassa virus binding/entry; details: Cell-based; ref PubChem, 2014b; cited from earlier work
# C57BL/6 mice [11] = experiment: Histology and flow cytometry of CNS and spleen leukocytes in EAE mice (active immunization)
# Cytochrome p450 3A4 = details: cited from earlier work
# Cytochrome p450 1A2 = details: cited from earlier work
# Cytochrome p450 2C19 = details: cited from earlier work
# [12] = biological target: Aldehyde dehydrogenase 1 family, member A1 (ALDH1A1); design: method as in PubChem, 2014b; ref 22; details: Purified enzyme; ref PubChem, 2014b; cited from earlier work
# C57BL/6 mice [13] = experiment: EAE induced by adoptive transfer of MOG-reactive lymphocytes in C57BL/6 mice; assay type: in vivo, mouse
# CMKLR1 KO mice = experiment: EAE induced by active immunization in CMKLR1 KO mice; assay type: in vivo, mouse; details: 10 mg/kg daily s.c.
# [14] = within 5 min; depending on the temperature of incubation
# Chain of CXCR5 (P32302 whole entry): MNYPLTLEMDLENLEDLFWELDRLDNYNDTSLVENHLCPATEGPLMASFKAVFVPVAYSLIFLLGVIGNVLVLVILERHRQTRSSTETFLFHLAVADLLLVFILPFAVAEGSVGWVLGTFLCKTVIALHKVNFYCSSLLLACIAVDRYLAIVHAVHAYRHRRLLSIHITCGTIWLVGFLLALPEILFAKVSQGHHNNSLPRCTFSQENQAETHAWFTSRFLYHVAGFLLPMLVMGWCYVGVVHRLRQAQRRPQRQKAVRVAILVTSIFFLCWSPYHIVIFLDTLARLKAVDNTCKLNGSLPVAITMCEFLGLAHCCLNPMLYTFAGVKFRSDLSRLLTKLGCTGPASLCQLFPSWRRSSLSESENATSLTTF
# Chain of CXCR4 (P61073 whole entry): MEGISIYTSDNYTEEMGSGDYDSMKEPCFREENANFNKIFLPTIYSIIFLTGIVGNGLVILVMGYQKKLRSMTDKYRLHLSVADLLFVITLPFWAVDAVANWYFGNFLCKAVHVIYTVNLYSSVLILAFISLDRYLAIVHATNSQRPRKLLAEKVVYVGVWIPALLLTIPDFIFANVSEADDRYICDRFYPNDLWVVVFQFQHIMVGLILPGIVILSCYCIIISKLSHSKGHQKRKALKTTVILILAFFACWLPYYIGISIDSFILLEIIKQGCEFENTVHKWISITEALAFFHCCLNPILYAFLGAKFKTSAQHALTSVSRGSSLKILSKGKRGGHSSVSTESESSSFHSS
# Chain of CXCR7 (P25106 whole entry, species assumed): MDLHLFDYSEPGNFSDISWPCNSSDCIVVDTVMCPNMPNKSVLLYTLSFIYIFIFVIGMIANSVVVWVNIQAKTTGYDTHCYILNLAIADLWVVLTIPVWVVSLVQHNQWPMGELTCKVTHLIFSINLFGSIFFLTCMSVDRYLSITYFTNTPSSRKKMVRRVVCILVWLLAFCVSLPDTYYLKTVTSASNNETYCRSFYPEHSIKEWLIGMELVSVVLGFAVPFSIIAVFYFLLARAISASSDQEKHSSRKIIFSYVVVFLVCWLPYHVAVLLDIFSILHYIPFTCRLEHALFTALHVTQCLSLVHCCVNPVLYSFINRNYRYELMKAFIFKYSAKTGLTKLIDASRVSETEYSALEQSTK
smiles,measurement,setting,value
"C[N+](C)(C)CCC(=O)c1cccc2ccccc12.[I-] [α-NETA, 2-(α-naphthoyl)ethyltrimethylammonium iodide]",IC50,GPR154,32 µM
same,IC50,Acetylcholinesterase,300 µM
same,activity against carnitine acetyletransferase,[1],inactive
same,IC50,[2],1.3 µM
same,mice that did not develop clinical EAE by day 27,C57BL/6 mice [3]; 10 mg/kg daily s.c.,~30%
same,suppression of clinical signs beyond first appearance of disease in control mice,C57BL/6 mice [3]; 10 mg/kg daily s.c.,completely suppressed clinical signs for an average of nine days
same,severity of clinical disease,"C57BL/6 mice [3]; 10 mg/kg daily s.c., through day 25",significantly reduced
same,onset of EAE,"C57BL/6 mice [3]; doses as low as 3 mg/kg daily s.c., not shown",significantly delayed the onset of EAE
same,effect on ongoing clinical EAE,"C57BL/6 mice [3]; treatment initiated upon onset of clinical signs, data not shown",failed to reverse ongoing clinical EAE
same,IC50,[4],4.5 µM
same,IC50,Cytochrome p450 2D6,≥ 10 µM
same,IC50,[5],25 µM
same,IC50,CXCR5,≥ 10 µM
same,inhibition of migration of CXCR5+ NC-37 cells to CXCL13,"CXCR5; 1, 3, and 10 µM",did not inhibit
same,IC50,Vitamin D receptor,2 µM
same,EC50,DNA re-replication,1.8 µM
same,IC50,[6],0.5 µM
same,IC50,[7],14 µM
same,"IC50 (µM), Acetylcholine muscarinic M1 receptor",[8],Inactive ^k
same,IC50,CXCR4,≥ 10 µM
same,inhibition of migration of CXCR4+ cells to CXCL12,"CXCR4; 1, 3, and 10 µM",did not inhibit
same,IC50,[9],10 µM
same,suppression of clinical signs beyond first appearance of disease in control CCRL2 KO mice,CCRL2 KO mice; 10 mg/kg daily s.c.,completely and significantly suppressed clinical signs for an average of four days
same,treated mice that did not develop EAE by day 20,"CCRL2 KO mice; CCRL2 KO mice, 10 mg/kg daily s.c.",40%
same,severity of clinical disease,"CCRL2 KO mice; CCRL2 KO mice, days 8-15 (except for day 10)",significantly reduced
same,IC50,Cholinesterase,84 µM
same,inhibition of CXCL12-triggered β-arrestin2 association with CXCR7,CXCR7,moderately inhibited
same,IC50,mCMKLR1,5 ± 0.4 µM
same,IC50,[10],10 µM
same,total cells in the spleen,"C57BL/6 mice [11]; 16 days p.i., did not reach statistical significance",more total cells in the spleen
same,total cells in the CNS,"C57BL/6 mice [11]; 16 days p.i., p<0.05",fewer total cells in the CNS
same,total numbers of splenic NK cells,"C57BL/6 mice [11]; EAE mice, not shown",did not induce detectable changes
same,numbers of CNS lesions,"C57BL/6 mice [11]; chronic EAE, day 37 p.i., data not shown",no differences in numbers of CNS lesions
same,"leukocyte accumulation within the CNS (T cells, B cells, dendritic cells, macrophages)","C57BL/6 mice [11]; day 16 p.i., no apparent preferential or selective effect on subsets",suppressed leukocyte accumulation
same,meningeal and parenchymal CNS inflammatory foci,"C57BL/6 mice [11]; peak acute EAE, day 16 p.i.",fewer meningeal and parenchymal CNS inflammatory foci
same,% of NK cells (CD3-NK1.1+) in lymphocyte scatter gate,"C57BL/6 mice [11]; spleen, day 16 post-EAE induction, n = 5 mice per group",0.8 (0.1) ^* %
same,IC50,Cytochrome p450 3A4,0.2 µM
same,IC50,Cytochrome p450 1A2,8 µM
same,IC50,Cytochrome p450 2C19,≥ 10 µM
same,"IC50 (µM), Cytochrome p450 2C19",Cytochrome p450 2C19,Inactive ^j
same,IC50,[12],0.04 µM
same,suppression of clinical signs beyond first appearance of disease in control mice,C57BL/6 mice [13]; 10 mg/kg daily s.c.,completely suppressed clinical signs for an average of six days
same,severity of clinical disease,"C57BL/6 mice [13]; 10 mg/kg daily s.c., day 15–19",significantly reduced
same,reduction of the incidence of EAE by day 24,"C57BL/6 mice [13]; 10 mg/kg daily s.c., did not reach statistical significance",~25%
same,ability of MOG-reactive lymphocytes from treated donor mice to induce EAE by passive transfer,C57BL/6 mice [13]; donor mice treated once daily for ten days,fully capable of inducing EAE by passive transfer
same,disease incidence by day 20,CMKLR1 KO mice; not statistically significant,40%
same,Mean day of onset (SEM),"CMKLR1 KO mice; only animals that developed EAE, not significant (p = 0.18)",14.3 (1.5) ^ns
same,parent compound no longer detectable by mass spectrometry after dissolution in 10% captisol,[14],40–60%
